Test results from patent publication US4463003A, “Cephem compounds” (Fujisawa Pharmaceutical Co., Ltd., priority 1982, dated 1984).
Converted amounts (≈) assume the structure as drawn.

Assays:
[1] = in vivo; conditions: rat, po, 100 mg/kg
Procedure: Rats anesthetized with pentobarbital were fixed in supine position, and a polyethylene cannula was inserted into the bile duct. Bile samples were collected at 0 to 3, 3 to 6, and 6 to 24 hours after oral administration of 100 mg/kg of the test antibiotic. The antibiotic levels in the bile samples were bioassayed with the standard solution prepared with M/15 phosphate buffer (pH 7.0) and the biliary recovery in 24 hours were calculated.

[2] = test system: Proteus mirabilis 18; experiment: Minimal inhibitory concentrations, two-fold agar-plate dilution method; format: cell-based; conditions: HI-agar, 37° C., 20 hours
Procedure: (§1) (A) Minimal inhibitory concentrations In vitro antibacterial activity was determined by the two-fold agar-plate dilution method as described below. One loopful of an overnight culture of each test strain in Trypticase-soy broth (10^8 viable cells per ml) was streaked on heart infusion agar (HI-agar) containing graded concentrations of representative test compound, and the minimal inhibitory concentration (MIC) was expressed in terms of μg/ml after incubation at 37° C. for 20 hours.

[3] = test system: Proteus vulgaris 2; experiment: as above; format: cell-based; conditions: HI-agar, 37° C., 20 hours
Procedure: as §1

[4] = Urinary excretion after oral administration in rats; format: in vivo; conditions: rat, urine, 100 mg/kg, 0 to 24 hours, bioassay, read-out: Urinary recovery in 24 hours (%)
Procedure: Urine of rats was collected with a urine collector at 0 to 6, and 6 to 24 hours after oral administration of 100 mg/kg of the test antibiotic. The antibiotic levels in the urine samples were bioassayed with the standard solution prepared with M/15 phosphate buffer (pH 7.0) and the urinary recovery in 24 hours was calculated.

- dose excreted at 24 h [1]: 12.6%
- MIC [2]: 0.05 µg/mL (≈ 0.0864 µM)
- MIC [3]: 0.05 µg/mL (≈ 0.0864 µM)
- dose excreted at 24 h [4]: 10.6%
Compound: O=C(O)CO/N=C(\C(=O)NC1C(=O)N2C(C(=O)O)=C(CSc3ccc4nnnn4n3)CSC12)c1ncsn1 (stereo not drawn) [Compound .circle.A, 7-[2-Carboxymethoxyimino-2-(1,2,4-thiadiazol-3-yl)acetamido]-3-(tetrazolo[1,5-b]pyridazin-6-yl)thiomethyl-3-cephem-4-carboxylic acid (syn isomer)]
